Where “and” joins values, the source holds several entries; their conditions need not be identical. Identical values can stand only once.
Test system: S. mutans UA159
Assay: pH of culture medium of S. mutans biofilms after 1 minute incubation with test treatments
Format: cell-based, Streptococcus mutans
Settings: for pH of the medium, Average: average of samples; for pH of the medium: individual samples 1-4; for drop in pH of the medium (initial pH minus pH at 6 or 8 hours): 6 and 8 hours after treatment, FIGS. 2 and 3; for statistical significance of pH results compared to the water control: p<0.05
Source text: Amongst acidogenic bacteria, S. mutans is the principal etiological agent of caries in humans. Since there is a strong correlation between the proportion of S. mutans in dental plaque or in saliva relative to other bacterial species and the presence or risk of future outbreaks of dental caries, S. mutans in plaque or saliva may serve as an index for both dental caries activity state and dental caries risk or susceptibility. S. mutans UA159 strain was used in this Example.
On the first day, biofilm growth was initiated by inoculating 10 mL of 100% Todd-Hewitt broth (THYE) with 0.3% yeast extract at a pH of 7.0 with UA159 to prepare overnight cultures. The samples were incubated in closed screw-cap tubes without agitation at 37° C. in an anaerobic chamber (5% CO2).
On the second day, 1:100 dilutions were prepared by mixing 20 pl of the overnight UA159 cultures with ¼ THYE with 0.075% yeast extract supplemented with 0.1% sucrose to reach a final volume of 2 mL. The dilutions were then placed into the wells of 12-well plates.
On the third day, the 2 mL of medium was removed from each well. 1.0 mL of test treatment solution, as described below, was added to each well, after which the wells were incubated for 1 minute on the bench at room temperature. Next, the test treatment solutions were removed, and 3.0 mL of undiluted THYE with 0.3% yeast extract and no sucrose was added to each well.
If an internal pH control was required, fresh THYE was also added to two un-inoculated wells. During these steps, care was taken to avoid disrupting the biofilm.
Immediately after 100% THYE with 0.3% yeast extract was added to the wells following incubation with the test treatments, the initial pH of the medium in each well was measured. Samples were incubated at 37° C. in an open air, bench-top incubator, and the pH of the medium was measured once an hour for the next 7-8 hours. Finally, the pH of the medium in each well was measured again the next morning.

SMILES	pH of the medium, Average (0 hours after treatment)	pH of the medium (0 hours after treatment)	drop in pH of the medium (initial pH minus pH at 6 or 8 hours)	pH of the medium, Average (1 hour after treatment)	pH of the medium (1 hour after treatment)	pH of the medium, Average (2 hours after treatment)	pH of the medium (2 hours after treatment)	pH of the medium, Average (3 hours after treatment)	pH of the medium (3 hours after treatment)	pH of the medium, Average (4 hours after treatment)	pH of the medium (4 hours after treatment)	pH of the medium, Average (5 hours after treatment)	pH of the medium (5 hours after treatment)	pH of the medium, Average (6 hours after treatment)	pH of the medium (6 hours after treatment)	pH of the medium, Average (7 hours after treatment)	pH of the medium (7 hours after treatment)	pH of the medium, Average (8 hours after treatment)	pH of the medium (8 hours after treatment)	statistical significance of pH results compared to the water control	further results
OC[C@@H](O)[C@H](O)[C@@H](O)CO [Xylitol]	7.50	7.49 and 7.36 and 7.58 and 7.57	able to slow the pH drop	7.08	7.08 and 7 and 7.12 (2×)	6.87	6.72 and 6.82 and 6.97 (2×)	6.58	6.19 and 6.57 and 6.77 and 6.8	6.27	5.77 and 6.17 and 6.55 and 6.57	6.00	5.51 and 5.93 and 6.25 and 6.29	5.72	5.23 and 5.55 and 6.05 and 6.06	5.52	5.1 and 5.37 and 5.78 and 5.82	5.45	5.09 and 5.58 and 5.68	statistically significant difference at 1, 6, 7, and 8 hours	
O=C([O-])O.[Na+] [Sodium Bicarbonate, Sodium bicarbonate]	7.51	7.48 and 7.39 and 7.58 and 7.59	little to no effect on the drop in pH	7.07	7.09 and 6.97 and 7.1 and 7.12	6.84	6.67 and 6.81 and 6.93 and 6.96	6.52	5.85 and 6.6 and 6.82 and 6.81	6.08	5.08 and 6.21 and 6.49 and 6.53	5.69	5.03 and 5.7 and 5.97 and 6.06	5.22	5 and 5.11 and 5.33 and 5.42	5.01	5 and 4.96 and 5.01 and 5.06	5.00	5.06 and 4.96 and 4.97	statistically significant difference at 1 hour	
O.O.O=C([O-])CC(O)(CC(=O)[O-])C(=O)[O-].[Na+].[Na+].[Na+] [Sodium Citrate, Sodium citrate dihydrate]	7.50		little to no effect on the drop in pH	7.05		6.83		6.50		6.00		5.64		5.22		5.00		4.97		no statistically significant difference at any time	pH of the medium (0 hours after treatment, citrate dihydrate): 7.5 and 7.35 and 7.57 and 7.58; pH of the medium (1 hour after treatment, citrate dihydrate): 7.05 and 6.93 and 7.09 and 7.12; pH of the medium (2 hours after treatment, citrate dihydrate): 6.69 and 6.75 and 6.91 and 6.95; pH of the medium (3 hours after treatment, citrate dihydrate): 6.01 and 6.47 and 6.76 and 6.77; pH of the medium (4 hours after treatment, citrate dihydrate): 5.14 and 5.94 and 6.44 and 6.48; pH of the medium (5 hours after treatment, citrate dihydrate): 5.02 and 5.49 and 5.96 and 6.07; pH of the medium (6 hours after treatment, citrate dihydrate): 4.98 and 5.06 and 5.36 and 5.46; pH of the medium (7 hours after treatment, citrate dihydrate): 4.97 and 4.92 and 5.04 and 5.07; pH of the medium (8 hours after treatment, citrate dihydrate): 4.99 and 4.95 and 4.96

Reference: patent US20150297490A1, “COMPOSITIONS, USES AND METHODS FOR TREATING OR PREVENTING DENTAL CARIES” (APOLLONIA HEALTH INC., priority 2012, published 2015)
